Peptide text beside a SMILES is read from it.
Columns and labels:
human CXCR4 [1] = molecular target: T1, human CXCR4 (Homo sapiens, UniProt P61073); assay: CXCR4/CXCL12 binding, HTRF format, single concentration (Example 23); design: host or cells: HEK293 (Tag-lite CXCR4 cells, frozen aliquots, transient expression); conditions: 15 nM CXCR4R fluorescent probe, 3 hours, HEK293 Tag-lite CXCR4 cells
In short: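 Tag-lite CXCR4 cells were exposed to peptide at 400 nM final with 15 nM (EC80) fluorescent CXCR4 probe for 3 h at room temperature. HTRF was read, and the 665/620 nm ratio ×10,000 measured probe bound to terbium-labelled receptor.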

human CXCR4 [2] = molecular target: T1, human CXCR4; assay: Inhibition of β-Arrestin recruitment, single concentration (Example 18); assay type: cell-based; design: host or cells: C2C12 (mouse myoblast) CXCR4 β-Arrestin PathHunter cell line; conditions: peptide 1 μM, […] CXCL12 (EC80), C2C12 CXCR4 β-Arrestin cells
Description: Peptides were initially prepared as 1 mM stock in DMSO and tested at a final concentration of 1 μM (0.1% DMSO). C2C12 CXCR4 β-Arrestin cells were seeded onto 384-well plates in standard medium. After overnight culture, the medium was replaced with buffer containing 1 μM peptide and pre-incubated for 30 min at 37° C. […] At the end of the 90 min incubation period, β-Arrestin recruitment in response to various treatments was quantified using a chemiluminescent complementation reporter assay to measure association of tagged human […] (ProLink tag) and tagged β-Arrestin (Enzyme Acceptor tag).

T1 sequence (P61073 whole entry): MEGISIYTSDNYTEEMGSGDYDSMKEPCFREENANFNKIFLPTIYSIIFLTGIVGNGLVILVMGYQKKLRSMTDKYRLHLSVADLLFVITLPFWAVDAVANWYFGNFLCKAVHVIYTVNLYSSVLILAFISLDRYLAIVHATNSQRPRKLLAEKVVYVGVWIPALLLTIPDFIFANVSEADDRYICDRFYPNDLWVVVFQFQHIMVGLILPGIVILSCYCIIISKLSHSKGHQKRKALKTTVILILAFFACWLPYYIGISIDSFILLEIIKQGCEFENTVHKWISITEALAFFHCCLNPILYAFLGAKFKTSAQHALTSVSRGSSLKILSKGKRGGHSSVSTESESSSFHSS

Row | Percent Inhibition of CXCR4/CXCL12 Binding (400 nM peptide) (human CXCR4 [1]) [%] | Percent Inhibition of CXCL12 Mediated CXCR4 Activity (human CXCR4 [2]) [%] | Compound
1 | 88 |  | CC(C)C[C@H](NC(=O)[C@H](CO)NC(=O)[C@H](CO)NC(=O)[C@H](CCCNC(=N)N)NC(=O)[C@@H](NC(=O)[C@H](CO)NC(=O)[C@H](Cc1c[nH]cn1)NC(=O)[C@H](Cc1c[nH]cn1)NC(=O)[C@H](Cc1ccc(O)cc1)NC(=O)[C@H](CCCNC(=N)N)NC(=O)[C@H](CCC(=O)O)NC(=O)[C@@H](N)CC(C)C)C(C)C)C(=O)N[C@@H](CCCNC(=N)N)C(=O)N1CCC[C@H]1C(=O)N[C@@H](Cc1ccc(O)cc1)C(=O)N[C@H](C(=O)N[C@@H](CCCCN)C(=O)O)[C@@H](C)O [compound 4] (H-LERYHHSVRSSLRPYTK-OH; N-terminus and C-terminus assumed)
2 |  | 113.8 | CC(C)C[C@H](NC(=O)[C@H](CO)NC(=O)[C@H](CO)NC(=O)[C@H](CCCNC(=N)N)NC(=O)[C@@H](NC(=O)[C@H](CO)NC(=O)[C@H](Cc1c[nH]cn1)NC(=O)[C@H](Cc1c[nH]cn1)NC(=O)[C@H](Cc1ccc(O)cc1)NC(=O)[C@H](CCCNC(=N)N)NC(=O)[C@H](CCCNC(=N)N)NC(=O)[C@@H](N)CC(C)C)C(C)C)C(=O)N[C@@H](CCCNC(=N)N)C(=O)N1CCC[C@H]1C(=O)N[C@@H](Cc1ccc(O)cc1)C(=O)N[C@H](C(=O)N[C@@H](CCCCN)C(=O)O)[C@@H](C)O [compound 3] (H-LRRYHHSVRSSLRPYTK-OH; N-terminus and C-terminus assumed)
